Measured values: ChEMBL document CHEMBL3286249 (Eur J Med Chem, 2014)

Key:
[1] = target: Carbonic anhydrase 9 (Homo sapiens, UniProt Q16790)
[2] = target: Carbonic anhydrase 1 (Homo sapiens, UniProt P00915)
[3] = target: Carbonic anhydrase 2 (Homo sapiens, UniProt P00918)
[4] = target: Carbonic anhydrase 12 (Homo sapiens, UniProt O43570)
Sequence of Carbonic anhydrase 12 (O43570 whole entry): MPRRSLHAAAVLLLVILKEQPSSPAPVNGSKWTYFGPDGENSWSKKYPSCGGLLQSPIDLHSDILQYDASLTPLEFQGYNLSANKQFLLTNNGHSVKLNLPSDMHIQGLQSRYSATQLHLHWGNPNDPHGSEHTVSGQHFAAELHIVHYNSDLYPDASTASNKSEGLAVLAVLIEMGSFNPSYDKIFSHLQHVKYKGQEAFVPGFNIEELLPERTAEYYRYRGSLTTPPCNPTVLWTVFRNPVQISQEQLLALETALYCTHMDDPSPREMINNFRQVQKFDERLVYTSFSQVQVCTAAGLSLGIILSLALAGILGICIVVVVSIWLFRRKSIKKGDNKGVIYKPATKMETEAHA

Sequence of Carbonic anhydrase 1 (P00915 whole entry): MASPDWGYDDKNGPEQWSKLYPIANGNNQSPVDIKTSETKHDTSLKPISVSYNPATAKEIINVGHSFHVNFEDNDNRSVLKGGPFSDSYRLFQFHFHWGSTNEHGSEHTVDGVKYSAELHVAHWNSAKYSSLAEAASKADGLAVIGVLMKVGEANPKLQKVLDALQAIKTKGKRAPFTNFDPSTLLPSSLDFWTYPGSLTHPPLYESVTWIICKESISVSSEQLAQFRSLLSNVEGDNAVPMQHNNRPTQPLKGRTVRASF

SMILES: NS(=O)(=O)c1cc(NC(=O)NNC(=O)c2ccccc2)c(Cl)cc1Cl
- Ki [1]: 12.5 nM

SMILES: NS(=O)(=O)c1cc(C(=O)NNC(=S)Nc2ccccc2)c(Cl)cc1Cl
- Ki [1]: 31 nM

SMILES: NS(=O)(=O)c1cc(C(=O)NNC(=S)Nc2ccc(Cl)cc2)c(Cl)cc1Cl
- Ki [1]: 27 nM

SMILES: NS(=O)(=O)c1cc(C(=O)NNC(=O)c2ccccc2)c(Cl)cc1Cl
- Ki [1]: 10.2 nM

SMILES: Cc1ccc(C(=O)NNC(=O)c2cc(S(N)(=O)=O)c(Cl)cc2Cl)cc1
- Ki [1]: 5.5 nM

SMILES: NS(=O)(=O)c1cc(NC(=O)Nc2ccccc2)c(Cl)cc1Cl
- Ki [1]: 7 nM

SMILES: NS(=O)(=O)c1cc(-c2nnc(Nc3ccccc3)o2)c(Cl)cc1Cl
- Ki [1]: 13.8 nM

SMILES: NS(=O)(=O)c1cc(NC(=O)NCCCN2CCOCC2)c(Cl)cc1Cl
- Ki [1]: 38 nM

SMILES: NS(=O)(=O)c1cc(-c2nnc(-c3ccccc3)s2)c(Cl)cc1Cl
- Ki [1]: 13.6 nM

SMILES: NS(=O)(=O)c1cc(NC(=O)Nc2ccc(Cl)cc2)c(Cl)cc1Cl
- Ki [1]: 7.1 nM

SMILES: Cc1nnc(-c2cc(S(N)(=O)=O)c(Cl)cc2Cl)o1
- Ki [2]: 718 nM
- Ki [3]: 8.7 nM
- Ki [4]: 6.3 nM

SMILES: NS(=O)(=O)c1cc(NC(=O)NOCc2ccccc2)c(Cl)cc1Cl
- Ki [1]: 18.9 nM

SMILES: NS(=O)(=O)c1cc(-c2nnc(-c3ccccc3)o2)c(Cl)cc1Cl
- Ki [1]: 13.2 nM

SMILES: NS(=O)(=O)c1cc(-c2nnc(-c3ccc(Cl)cc3)o2)c(Cl)cc1Cl
- Ki [1]: 10.9 nM

SMILES: Cc1ccc(S(=O)(=O)NC(=O)NNC(=O)c2cc(S(N)(=O)=O)c(Cl)cc2Cl)cc1
- Ki [1]: 15.3 nM

SMILES: NS(=O)(=O)c1cc(NC(=O)N2CCN(Cc3ccc4c(c3)OCO4)CC2)c(Cl)cc1Cl
- Ki [1]: 76 nM

SMILES: NS(=O)(=O)c1cc(C(=O)NNC(=O)c2ccco2)c(Cl)cc1Cl
- Ki [1]: 3.9 nM

SMILES: NS(=O)(=O)c1cc(-c2nnc(Nc3ccc(Cl)cc3)o2)c(Cl)cc1Cl
- Ki [1]: 15.1 nM

SMILES: NS(=O)(=O)c1cc(-c2nnc(-c3ccccc3)[nH]2)c(Cl)cc1Cl
- Ki [1]: 9.7 nM

SMILES: NS(=O)(=O)c1ccc(NC(=O)Nc2cc(S(N)(=O)=O)c(Cl)cc2Cl)cc1
- Ki [1]: 15.8 nM
